Experimental data taken from the supplement of paper PMC10627819.

Experiments:
Settings in all cases: main component drawn
B. subtilis 168 [1] = experiment: fitness (endpoint OD595 vs no drug) (fraction); higher = more growth
Procedure, shortened: (§1)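 In 384-well plates at 37 °C, cultures began at OD595 0.01 in 30 µl, with 55 µl used for S. pneumoniae. OD595 readings every 30 min for 14 h were corrected by the first reading. Fitness divides the stationary-phase transition optical density by the robust mean of no-drug control wells. The result is capped at 1.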

S. pneumoniae D39V [2] = experiment: as above
Procedure, shortened: as §1

S. aureus DSM 20231 = experiment: Bliss interaction score (quartile over a dose matrix) (fitness difference); higher = more antagonism (negative = synergy)
Procedure, shortened: (§2)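 Each OD595 reading at entry into stationary phase was scaled to the robust mean of the untreated wells on its plate, with a ceiling of 1. These ratios define fitness, and single-drug fitness was inferred from combinations. The Bliss score compares observed fitness with the product-based expectation and is reported as quartiles across all replicate types, technical, biological and donor/recipient.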

S. aureus Newman = experiment: as above
Procedure, shortened: as §2

B. subtilis 168 [3] = experiment: as above
Procedure, shortened: as §2

S. pneumoniae D39V [4] = experiment: as above
Procedure, shortened: as §2
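Throughout, for Bliss interaction score (quartile over a dose matrix): first quartile when negative (synergy) and third quartile when positive (antagonism).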
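Throughout, for fitness (endpoint OD595 vs no drug): OD595 on entry to stationary phase over no-drug wells; at most 1.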

CCC[C@@H]1C[C@@H](C(=O)N[C@@H]([C@H]2O[C@H](SC)[C@H](O)[C@@H](O)[C@H]2O)[C@@H](C)O)N(C)C1 [Lincomycin] + CCC(C)C1C(=O)NC(=C)C(=O)NC(C(=O)NC(CSCC(C(=O)N1)NC(=O)/C(=C/C)/NC(=O)C(C(C)CC)N)C(=O)NC2C(SCC(NC(=O)CNC(=O)C3CCCN3C2=O)C(=O)NC(CCCCN)C(=O)NC4C(SCC(NC(=O)CNC(=O)C(NC(=O)C(NC(=O)C(NC(=O)CNC4=O)C)CC(C)C)CCSC)C(=O)NC(CC(=O)N)C(=O)NC(CCSC)C(=O)NC(CCCCN)C(=O)NC5C(SCC6C(=O)NC(C(=O)NC(CSC(C(C(=O)N6)NC(=O)C(NC5=O)C)C)C(=O)NC(CO)C(=O)NC(C(C)CC)C(=O)NC(CC7=CN=CN7)C(=O)NC(C(C)C)C(=O)NC(=C)C(=O)NC(CCCCN)C(=O)O)CC8=CN=CN8)C)C)C)CC(C)C [Nisin]
Settings | fitness
B. subtilis 168 [1], first compound 0.1 µg/mL, partner 0.5 µg/mL | 0.888
B. subtilis 168 [1], first compound 0.1 µg/mL, partner 1 µg/mL | 0.873
B. subtilis 168 [1], first compound 0.1 µg/mL, partner 2 µg/mL | 0.542
B. subtilis 168 [1], first compound 0.2 µg/mL, partner 0.5 µg/mL | 0.866
B. subtilis 168 [1], first compound 0.2 µg/mL, partner 1 µg/mL | 0.839
B. subtilis 168 [1], first compound 0.2 µg/mL, partner 2 µg/mL | 0.58
B. subtilis 168 [1], first compound 0.4 µg/mL, partner 0.5 µg/mL | 0.903
B. subtilis 168 [1], first compound 0.4 µg/mL, partner 1 µg/mL | 0.876
B. subtilis 168 [1], first compound 0.4 µg/mL, partner 2 µg/mL | 0.643
S. pneumoniae D39V [2], first compound 0.2 µg/mL, partner 0.4275 µg/mL | 0.751
S. pneumoniae D39V [2], first compound 0.2 µg/mL, partner 0.855 µg/mL | 0.816
S. pneumoniae D39V [2], first compound 0.2 µg/mL, partner 1.71 µg/mL | 0.0439
S. pneumoniae D39V [2], first compound 0.215 µg/mL, partner 3.2 µg/mL | 0.0034
S. pneumoniae D39V [2], first compound 0.215 µg/mL, partner 6.4 µg/mL | 0.0021
S. pneumoniae D39V [2], first compound 0.4 µg/mL, partner 0.4275 µg/mL | 0.711
S. pneumoniae D39V [2], first compound 0.4 µg/mL, partner 0.855 µg/mL | 0.197
S. pneumoniae D39V [2], first compound 0.4 µg/mL, partner 1.71 µg/mL | 0.03
S. pneumoniae D39V [2], first compound 0.43 µg/mL, partner 3.2 µg/mL | 0.0144
S. pneumoniae D39V [2], first compound 0.43 µg/mL, partner 6.4 µg/mL | 0.0124
S. pneumoniae D39V [2], first compound 0.8 µg/mL, partner 0.4275 µg/mL | 0.188
S. pneumoniae D39V [2], first compound 0.8 µg/mL, partner 0.855 µg/mL | 0.124
S. pneumoniae D39V [2], first compound 0.8 µg/mL, partner 1.71 µg/mL | 0.0586
S. pneumoniae D39V [2], first compound 0.86 µg/mL, partner 1.6 µg/mL | 0.0707
S. pneumoniae D39V [2], first compound 0.86 µg/mL, partner 3.2 µg/mL | 0.0001
S. pneumoniae D39V [2], first compound 0.86 µg/mL, partner 6.4 µg/mL | 0.0011

fitness, B. subtilis 168 [1], one replicate
Settings | partner 1.25 µg/mL | partner 1.6 µg/mL | partner 2.5 µg/mL | partner 3.2 µg/mL | partner 4 µg/mL | partner 5 µg/mL | partner 6.4 µg/mL | partner 8 µg/mL | partner 16 µg/mL
first compound 0.1 µg/mL | – | – | – | – | 0.432 | – | – | 0.0171 | 0.0218
first compound 0.2 µg/mL | – | – | – | – | 0.212 | – | – | 0.0182 | 0.0151
first compound 0.4 µg/mL | 0.885 | 0.635 | 0.621 | 0.0271 | 0.202 | 0.0364 | 0.0378 | 0.0085 | 0.0174
first compound 0.8 µg/mL | 0.858 | 0.572 | 0.573 | 0.0171 | – | 0.065 | 0.035 | – | –
first compound 1.6 µg/mL | 0.836 | 0.571 | 0.356 | 0.0205 | – | 0.0299 | 0.0358 | – | –

Settings | Bliss interaction score
B. subtilis 168 [3] | 0.0535
S. aureus DSM 20231 | 0.117
S. aureus Newman | 0.0755
S. pneumoniae D39V [4] | -0.0491
